ChEMBL document CHEMBL1153194, “Discovery of halo-nitrobenzamides with potential application against human African trypanosomiasis” (Bioorg Med Chem Lett, 2010)

What was measured:
[1] = test system: Trypanosoma brucei brucei; test: Antitrypanosomal activity against Trypanosoma brucei brucei after 48 hrs by luminescence assay; assay type: functional, organism-based
HepG2 = test: Cytotoxicity against human HepG2 cells after 72 hrs; assay type: cell-based; details: HepG2, 72 h
Plasmodium falciparum = test: Antiplasmodial activity against Plasmodium falciparum 3D7 infected in human O+ erythrocytes after 72 hrs by GNA satin based assay; assay type: functional, organism-based; details: 3D7, 72 h
[2] = Solubility of the compound; assay type: physicochemical

SMILES | IC50 [1] [µM] | IC50 (Plasmodium falciparum) [µM] | solubility [2] [µM] | IC50 (HepG2) [µM]
CCCCCCc1ccc(NC(=O)c2ccc([N+](=O)[O-])cc2Cl)cc1 | 19 | > 15 | < 0.1 | > 50
CCCCCCc1ccc(NC(=O)c2cccc([N+](=O)[O-])c2Cl)cc1 | > 50 | > 15 | < 0.1 | > 50
CCCCCCc1ccc(C(=O)Nc2cc([N+](=O)[O-])ccc2Cl)cc1 | > 50 | > 15 | < 0.1 | > 50
CCCCCCc1ccc(C(=O)Nc2ccc(Cl)c([N+](=O)[O-])c2)cc1 | 6 | > 15 | < 0.1 | > 50
O=C(Nc1ccc(Cl)cc1)c1cc([N+](=O)[O-])ccc1Cl | 1.5 | > 15 | – | > 50
CCCCCCc1ccc(NC(=O)c2ccc(Cl)cc2[N+](=O)[O-])cc1 | 20.8 | > 15 | < 0.1 | > 50
CCCCCCc1ccc(C(=O)Oc2ccc(Cl)c([N+](=O)[O-])c2)cc1 | 24 | > 15 | < 0.1 | > 50
O=C(NCc1ccccc1)c1cc([N+](=O)[O-])ccc1Cl | > 50 | > 15 | – | > 50
CCCCCCc1ccc(NC(=O)c2cc([N+](=O)[O-])ccc2F)cc1 | 1.5 | 7.3 | < 0.1 | 2.5

More lines, in order of falling IC50 [1], values ahead:

IC50 [1] [µM] | IC50 (Plasmodium falciparum) [µM] | solubility [2] [µM] | SMILES | IC50 (HepG2) [µM]
29.8 | > 15 | < 0.1 | CCCCCCc1ccc(NC(=O)c2c(Cl)cccc2[N+](=O)[O-])cc1 | > 50
27 | > 15 | – | O=C(NCC1CCCCC1)c1cc([N+](=O)[O-])ccc1Cl | > 50
24.5 | > 15 | – | COc1ccc(N2CCN(C(=O)c3cc([N+](=O)[O-])ccc3Cl)CC2)cc1 | > 50
24 | > 15 | < 0.1 | CCCCCCc1ccc(NC(=O)c2ccc(F)c([N+](=O)[O-])c2)cc1 | 10.3
19.2 | > 15 | – | COc1ccc(NC(=O)c2cc([N+](=O)[O-])ccc2Cl)cc1 | > 50
11.9 | > 15 | < 0.1 | CCCCCCc1ccc(NC(=O)c2ccc(Cl)c([N+](=O)[O-])c2)cc1 | > 50
7.7 | > 15 | – | Cc1ccc(NC(=O)c2cc([N+](=O)[O-])ccc2Cl)cc1 | > 50
1 | > 15 | < 0.1 | CCCCCCc1ccc(NC(=O)c2cc([N+](=O)[O-])ccc2Cl)cc1 | > 50
